From patent US9725417B2, “Cdc42 inhibitor and uses thereof” (priority 2011, dated 2017) come the findings set out here.

In brackets after ≈: the same amount, converted by molar mass.

One data set relates to active Cdc42. Put plainly: Immunofluorescence staining of active Cdc42 in Swiss 3T3 cells. Type of data set: cell-based, mouse. The note with it: 50 uM ZCL278 or 10 uM NSC23766, Cdc42 agonist 1 unit/ml. As to the method: (§1) Immunofluorescent staining: Swiss3T3 cells were grown on coverslips to 30% confluence. In serum-deprived culture, cells were treated with 10 uM NSC23766 or 50 uM ZCL278 for 1 hour followed by 1 unit/mL Cdc42 agonists (Cytoskeleton Products) treatment for 1 minute. Added agonist alone was used as a positive control while DMSO was used as a negative control. Cells on the coverslips were fixed in 4% paraformaldehyde for 15 minutes, and in 0.2% Triton X-100 for permeabilization for 15 minutes and then blocked in 10% BSA for 30 minutes.
(§2) Incubation with antibodies: anti-active Cdc42 (mouse antibody, Neweast Biosciences); phosphorylated RhoA antibody (rabbit antibody, Santa Cruz Biotechnology Company); GM130 antibody (mouse antibody, BD Biosciences Company). The next step was to apply corresponding secondary antibody. Rhodamine, Phalloidin was incubated for 1 hour at room temperature to observe filamentous actin under the Zeiss Axiovert fluorescent light microscopy of cells staining. Image processing software MetaMorph-5 was used to randomly select cells in randomly selected five-point pixels to obtain the average number of each group for pixel intensity values.
(§3) Determination of selective inhibition of Cdc42 activation by ZCL278 at the cellular level. […] FIG. 3C: Pixel intensity of phospho-RhoA in cells after treatments with Activator, ZCL278, or NSC23766 was quantified. […]

The subject of data set [1] is PC-3 cells. Nature of the data set: Trypan blue dye exclusion cell viability in PC-3 cells. The note with it: 50 μM ZCL278 or 10 μM NSC23766, 24 hours, PC-3, trypan blue. In kind it is cell-based. The procedure: Examination of cell survival: PC3 cells were plated at 75000/ml for 48 hours, serum was removed and 50 uM ZCL278 or 10 uM NSC23766 was added, and then continue to culture for 24 hours before staining with trypan blue to determine cell survival rate.
In order to ensure that decreases in cellular migration seen with ZCL278 treatment was due to Cdc42 inhibition (or Rae inhibition when treated with NSC23766) rather than cell death, cell viability was tested using the trypan blue dye exclusion assay. PC-3 cells were arrested in G0, and then 50 μM ZCL278 or 10 μM NSC23766 was applied for 24 hours. […] Therefore, the differences seen in migratory ability is due to ZCL278-mediated Cdc42 inhibition or NSC23766-mediated Rac inhibition and not cell death.

The test system of a further data set is phosphorylated RhoA. Nature of the data set: Immunofluorescence staining of phosphorylated RhoA in Swiss 3T3 cells. The settings on record: 50 uM ZCL278, 10 uM NSC23766 or 1 unit/ml Cdc42 agonist. In kind it is cell-based, mouse. As to the method:
as §1, §2, §3

Data set [2] relates to PC-3 cells. Put plainly: Wound healing (migration) assay in PC-3 cells. In kind it is cell-based, human. The note with it: 24 hours; for wound closure: control 41%. The procedure: Filopodia are dynamic structures that aid cells in pathfinding and migration, and are largely controlled by Cdc42 activity. Using a metastatic line of human prostate cancer cells (PC-3), a wound healing assay was used in order to elucidate the effects of ZCL278 on cellular migration. 1 unit/ml Cdc42 activator; 50 uM or 5 uM of ZCL278; and 10 uM […] respectively, were used to treat cells for 24 hours, with Cdc42 activator as positive control, and no treatment as negative control. Cells were photographed at 0 and 24 hours following drug treatments and MetaMorph software was used to determine the distances cells had migrated. Black line indicates the boundary of wounded area. Each experiment was tested with p value (p<0.05).
The experiment was repeated three times and the means were obtained:**; p<0.01,*:p<0.05. Wound closure was less pronounced at 50 μM (8%) than 5 μM (30%) concentrations.

The target in another data set is T1, GTP-bound (active) Cdc42 (Mus musculus, UniProt P60766).
T1 construct: endogenous in cells; host or cells: Swiss 3T3 fibroblasts (mouse)
Put plainly: G-LISA of GTP-bound (active) Cdc42 in Swiss 3T3 lysates. In kind it is cell-based. The settings on record: then 1 unit/mL Cdc42 activator 2 minutes. The procedure:
Serine 71 phosphorylation can occur on both Rac and Cdc42. To directly assess specific Cdc42 activation and inactivation, a G-LISA, an ELISA-based assay that allows a quantitative determination of the levels of GTP-bound (active) Cdc42 in cellular lysates was utilized. Serum-starved Swiss 3T3 fibroblasts were incubated for 1 hour with 50 μM ZCL278 or 10 μM NSC23766 (Rac inhibitor), followed by 2 minutes of stimulation with 1 unit/mL Cdc42 activator.
Finally, the ability of NSC23766 to cross-inhibit Cdc42 activation was analyzed. NSC23766 was developed in a similar manner as ZCL278; however, it is specific to Rac and should therefore act as an additional negative control in this assay.
G-LiSA kit: Swiss 3T3 cells were cultured to 40% of the growth density, then removed serum and cultured for 48 hours, treated with Cdc42 agonist for 1 minute, and treated with the 50 uM ZCL278 and 10 uM NSC23766. Cell lysis proteins were extracted according to kit instructions, and analysis of the quantification of total protein concentration to be 0.15 mg/ml. Untreated cells or cells treated with buffer were used as negative control while the agonist treated cells and active Cdc42 protein were used as a positive control. Enzyme linked immunosorbent assay measured the absorbance value of each sample 490 nm light wave.

The subject of the next data set is GM130. Put plainly: GM130-docked Golgi organization in Swiss 3T3 cells. The settings on record: 50 uM ZCL278 or 10 uM NSC23766, Swiss 3T3. Type of data set: cell-based, mouse. The procedure:
as §1
as §2, with “values. […]” for “values.”

For data set [3], the system named is growth cone filopodia of cortical neurons. Nature of the data set: Time-lapse video microscopy of growth cone dynamics in cortical neurons. The settings on record: ZCL278 treatment, cortical neuron growth cone. In kind it is cell-based, mouse. The procedure:
(§4) Time-lapsed video light microscopy was used to observe the effects of ZCL278 on neuronal growth cone dynamics, Hamamatsu Orca digital camera was used to record the cell images under 63× magnification for 10 minute. 300 ms exposure for imaging was used to minimize phototoxicity. The images were analyzed using MetaMorph software and statistical analysis was performed. At 5 days cultured in vitro, cortical neurons extended neurites with multiple branches (FIG. 6A, Control). 50 μM of ZCL278 was applied for 5 and 10 minutes, while DMSO-treated neurons were maintained as negative controls.
Cdc42 is also widely known to control filopodia and microspikes at the leading edge of migrating growth cones. […] Thus, these studies further support ZCL278 as an effective small-molecule inhibitor of Cdc42-mediated neuronal branching and growth cone motility.

For a further data set, the system named is phospho-WASP. Nature of the data set: Western blot of phospho-WASP in PC-3 cells. Type of data set: cell-based, human. The note with it: 50 μM, up to 15 minutes. The procedure: Wiskott-Aldrich syndrome Protein WASP) is a downstream effector of Cdc42 activation. Tyrosine phosphorylation WASP is linked to rapid Cdc42 degradation following its activation. […] Thus, ZCL278 inhibits Rac/Cdc42 phosphorylation in a time-dependent manner and maintains tyrosine phosphorylation of WASP.
(§5) The Western blot: PC3 cells cultured to approximately 70% of the density, then removed serum and cultured for 16 hours, with addition of drugs: 1 unit/mL Cdc42 agonist (cytoskeleton) 5 uM, 50 uM ZCL278 to treat cells for 5, 10, and 15 minutes respectively. Cell lysis buffer (Formulation: 50 mM Tris buffer solution pH 7.5, 10 mM magnesium chloride, 0.5 M sodium chloride, 1% Triton X-100 and protease inhibitors) cell lysis and centrifuged at 14000 rpm and 4° C. to obtain extracted protein samples. Western blot analysis was conducted using antibody: phosphorylated Rac1/Cdc42 (Milipore Company), phosphorylated WASP (Assay Biotech Company), all at 1:1000, and GAPDH antibody (Calbiochem Company) on PVDF membrane for chemiluminescence development.

For data set [4], the target named is T2, Cdc42 (Homo sapiens, UniProt P60953). Put plainly: Fluorescence titration of purified Cdc42 with ZCL278 (tryptophan fluorescence). Type of data set: binding. The settings on record: emission monitored at 350 nm. The procedure: The binding affinity of ZCL278 and Cdc42 was assessed by using two independent biophysical methods. First, fluorescence titration of purified Cdc42 ZCL278 was carded out by monitoring the change of fluorescence intensity of a tryptophan residue on CAc42 upon ZCL278 binding. As ZCL278 has a weak absorption peak at 310 nm, to avoid any experimental error that might result from potential fluorescence quenching by ZCL278, the fluorescence emission of Cdc42 was monitored at 350 nm, at which ZCL278 has a negligible absorption. […] These species in solution may have modifying effects on membrane transport and binding to Cdc42.

Another data set has as its system phospho-Rac/Cdc42. Nature of the data set: Western blot of phospho-Rac/Cdc42 (Serine 71) in PC-3 cells. Type of data set: cell-based, human. The note with it: 50 μM for 5, 10 and 15 minutes. As to the method:
First, Cdc42 activation was investigated in human metastatic prostate cancer PC-3 cells that were treated with the Cdc42 activator or 50 μM ZCL278 for 5, 10, and 15 minutes. Serine 71 phosphorylation is known to negatively regulate Rac/Cdc42 activity, thus an increase: in phospho-Rac/Cdc42 expression is indicative of a decrease in active (GTP-bound) Rac/Cdc42.
as §5

In data set [5] the target is T2, Cdc42. Put plainly: Surface plasmon resonance, purified Cdc42 immobilized on CM5 chips. The note with it: SPR. Type of data set: binding.
Data set [6] has as its system Cdc42-mediated microspike/filopodia formation in Swiss 3T3 fibroblasts. Nature of the data set: Cdc42-mediated microspike/filopodia formation in serum-starved Swiss 3T3 fibroblasts. Type of data set: cell-based, mouse. The note with it: 50 μM for 1 hour, then Cdc42 activator 2 minutes. As to the method:
30 selected ZCL compounds were assessed for their ability to inhibit Cdc42-mediated microspike/filopodia formation in serum-starved Swiss 3T3 fibroblasts. Actin-based microspikes/filopodia are characteristic of Cdc42 activity in cultured fibroblastic cells. […] When arrested fibroblasts were briefly stimulated with 1 unit/mL of a commercial Cdc42 activator, a dramatic increase in microspike number and decrease in stress fibers occurred (FIG. 2A, Activator). Compound ZCL278 was applied at 50 μM for 1 hour and then stimulated with the Cdc42 activator for 2 minute. The cell periphery of ZCL278-treated cells resembles control cells with few microspikes (FIG. 2A, ZCL278).

Data set [7] deals with primary neonatal cortical neurons. Nature of the data set: Neuronal branching in primary neonatal cortical neurons. The settings on record: 50 μM for 5 and 10 minutes, 5 days in vitro. In kind it is cell-based, mouse. As to the method:
Primary neonatal day-one mouse brain was incubated with 0.25% trypsin HBSS for 15 minutes at 37° C., gently separated neurons were plated on poly-L-lysine coated coverslips, incubated with DMEM containing 10% bovine serum for 16 hours, then the media was changed to Neurobasal (Invitrogen). At 5 days in vitro, the cells were treated with either DMSO or 50 uM ZCL278 for 5 or 10 minutes, then fixed in 4% paraformaldehyde for 15 minutes. Fluorescein-phalloidin was applied to stain for F-actin structure and the neuronal morphology was observed under the Zeiss light microscope.
as §4

A short description of a further data set: Solubility determination. In kind it is physicochemical.

T1 sequence (P60766 whole entry): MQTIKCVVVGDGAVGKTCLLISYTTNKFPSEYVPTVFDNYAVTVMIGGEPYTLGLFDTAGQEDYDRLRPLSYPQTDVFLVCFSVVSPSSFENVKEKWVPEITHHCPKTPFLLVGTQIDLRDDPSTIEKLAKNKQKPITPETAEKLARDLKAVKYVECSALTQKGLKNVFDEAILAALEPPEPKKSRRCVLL
T2 sequence (P60953 whole entry, species assumed): as the sequence (P60766 whole entry) above

On to `CCN(CC)CCCC(C)Nc1nc(C)cc(Nc2ccc3nc(C)cc(N)c3c2)n1` (stereo not drawn) [NSC23766, reference compound], for which the “perinuclear distribution and immunoreactivity of active Cdc42” value with active Cdc42 is recorded as “did not have similar effects”. In addition, the “cell viability versus non-treated cells” value in the data set with PC-3 cells [1] is listed as “no difference in viability”. Further, in the data set on phosphorylated RhoA, the “pixel intensity of phospho-RhoA” value was “did not alter the phosphorylation RhoA”. The cellular migration entry with PC-3 cells [2] (10 uM) is “significantly reduced”. Besides, at GTP-bound (active) Cdc42 (10 μM NSC23766 1 hour), the “effect on GTP-Cdc42 content” value is “does not reduce GTP-Cdc42 content”. Also, the “GM130 immunoreactivity and distribution” value with GM130 was “did not significantly after GM130 expression or distribution”.
`Cc1cc(C)nc(NS(=O)(=O)c2ccc(NC(=S)NC(=O)COc3ccc(Br)cc3Cl)cc2)n1` [ZCL278, 4-(3-(2-(4-Bromo-2-chlorophenoxy)acetyl)thioureido)-N-(4,6-dimethylpyrimidin-2yl)benzenesulfonamide]: in data set [3], the “time to retraction of filopodia” value was at most 4 min. Moreover, in the data set on phospho-WASP, the phospho-WASP expression entry is recorded as “does not suppress phospho-WASP activity”. In addition, the Kd is 6.4 µM on Cdc42 [4] and 11.4 µM on Cdc42 [5]. Also, in the data set with phospho-Rac/Cdc42, the “Rac/Cdc42 phosphorylation (Serine 71)” value is reported as “time-dependent increase”. Moreover, the “perinuclear distribution and immunoreactivity of active Cdc42” value in the data set with active Cdc42 is on record as “obviously reduced this distribution”. The “inhibition of microspike formation” value in data set [6] was “obvious inhibition of microspike formation”. Moreover, the neuronal branch number entry in [7] is “significantly reduced”. Further, the “cell viability versus non-treated cells” value with PC-3 cells [1] is “no difference in viability”. In addition, the “pixel intensity of phospho-RhoA” value in the data set with phosphorylated RhoA is “did not alter the phosphorylation RhoA”. Further, the wound closure in the data set with PC-3 cells [2] (5 μM) is given as 30%; in the data set with PC-3 cells [2] (50 μM), 8%. In “Solubility determination”, the concentration in solution (solubility) was 181 µM (≈ 106 µg/mL). Also, the “decrease in GTP-Cdc42 content compared with cells treated solely with the activator” value at GTP-bound (active) Cdc42 (50 μM ZCL278 1 hour) is given as about 80%. For the same compound, the “GM130 immunoreactivity and distribution” value with GM130 is reported as “clear reduction of GM130 immunoreactivity”.
